Like-named read-outs stand apart in the source and are kept apart here.

We go through 3 compounds from US11208412B2 (DAEGU-GYEONGBUK MEDICAL INNOVATION FOUNDATION, priority 2017, dated 2021).

Assay in all cases: Kinase selectivity, DiscoverX scanMAX Kinase assay panel (% control)
What all share (assay type): binding

The target in experiment [1] is T1, kinases of the scanMAX Kinase assay panel (Homo sapiens, UniProt P23458).
T1 construct: purchased DiscoverX Co. (contract measurement) scanMAX Kinase assay panel
T1 sequence (P23458 whole entry): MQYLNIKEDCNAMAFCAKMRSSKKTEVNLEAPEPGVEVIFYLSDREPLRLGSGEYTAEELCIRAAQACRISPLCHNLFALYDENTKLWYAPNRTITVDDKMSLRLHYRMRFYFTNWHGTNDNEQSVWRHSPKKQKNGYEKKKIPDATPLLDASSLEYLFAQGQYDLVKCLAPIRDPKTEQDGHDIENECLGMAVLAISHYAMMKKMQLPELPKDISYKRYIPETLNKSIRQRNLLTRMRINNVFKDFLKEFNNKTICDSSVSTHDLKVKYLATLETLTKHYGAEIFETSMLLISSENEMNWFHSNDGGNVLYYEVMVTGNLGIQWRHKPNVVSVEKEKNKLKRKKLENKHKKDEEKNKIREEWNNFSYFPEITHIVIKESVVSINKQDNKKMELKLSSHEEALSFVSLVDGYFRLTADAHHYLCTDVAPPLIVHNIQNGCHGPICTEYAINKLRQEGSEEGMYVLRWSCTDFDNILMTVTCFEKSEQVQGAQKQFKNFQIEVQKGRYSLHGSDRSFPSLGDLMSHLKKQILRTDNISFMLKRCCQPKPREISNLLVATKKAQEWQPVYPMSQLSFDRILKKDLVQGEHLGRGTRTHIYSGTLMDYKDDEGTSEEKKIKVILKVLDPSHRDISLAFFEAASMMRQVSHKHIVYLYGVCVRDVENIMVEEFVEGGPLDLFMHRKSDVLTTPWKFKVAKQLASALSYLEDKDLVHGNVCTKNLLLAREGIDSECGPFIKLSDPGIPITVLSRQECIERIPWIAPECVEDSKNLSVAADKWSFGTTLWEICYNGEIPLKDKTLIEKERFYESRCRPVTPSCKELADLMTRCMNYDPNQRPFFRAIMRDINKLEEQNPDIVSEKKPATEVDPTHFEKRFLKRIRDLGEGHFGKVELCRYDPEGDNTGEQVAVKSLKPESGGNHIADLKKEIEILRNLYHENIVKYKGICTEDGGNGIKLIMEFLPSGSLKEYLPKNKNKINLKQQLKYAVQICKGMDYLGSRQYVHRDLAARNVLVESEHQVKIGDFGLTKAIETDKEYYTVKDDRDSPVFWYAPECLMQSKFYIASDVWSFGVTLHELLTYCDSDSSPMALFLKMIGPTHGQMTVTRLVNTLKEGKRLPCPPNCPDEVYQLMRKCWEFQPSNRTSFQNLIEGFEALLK
To be noted: 1 uM. An outline of the steps:
(§1)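 Compounds were tested at 1 uM (in DMSO) against each panel kinase. % control was calculated as (compound − positive control)/(negative control − positive control)×100, where the positive control gives 0% and DMSO gives 100%. Activity toward a kinase was called at % control <35%.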

The target of experiment [2] is T2, kinases of the scanMAX Kinase assay panel (Homo sapiens, UniProt P29323).
T2 construct: purchased DiscoverX Co. (contract measurement) scanMAX Kinase assay panel
T2 sequence (P29323 19-1055): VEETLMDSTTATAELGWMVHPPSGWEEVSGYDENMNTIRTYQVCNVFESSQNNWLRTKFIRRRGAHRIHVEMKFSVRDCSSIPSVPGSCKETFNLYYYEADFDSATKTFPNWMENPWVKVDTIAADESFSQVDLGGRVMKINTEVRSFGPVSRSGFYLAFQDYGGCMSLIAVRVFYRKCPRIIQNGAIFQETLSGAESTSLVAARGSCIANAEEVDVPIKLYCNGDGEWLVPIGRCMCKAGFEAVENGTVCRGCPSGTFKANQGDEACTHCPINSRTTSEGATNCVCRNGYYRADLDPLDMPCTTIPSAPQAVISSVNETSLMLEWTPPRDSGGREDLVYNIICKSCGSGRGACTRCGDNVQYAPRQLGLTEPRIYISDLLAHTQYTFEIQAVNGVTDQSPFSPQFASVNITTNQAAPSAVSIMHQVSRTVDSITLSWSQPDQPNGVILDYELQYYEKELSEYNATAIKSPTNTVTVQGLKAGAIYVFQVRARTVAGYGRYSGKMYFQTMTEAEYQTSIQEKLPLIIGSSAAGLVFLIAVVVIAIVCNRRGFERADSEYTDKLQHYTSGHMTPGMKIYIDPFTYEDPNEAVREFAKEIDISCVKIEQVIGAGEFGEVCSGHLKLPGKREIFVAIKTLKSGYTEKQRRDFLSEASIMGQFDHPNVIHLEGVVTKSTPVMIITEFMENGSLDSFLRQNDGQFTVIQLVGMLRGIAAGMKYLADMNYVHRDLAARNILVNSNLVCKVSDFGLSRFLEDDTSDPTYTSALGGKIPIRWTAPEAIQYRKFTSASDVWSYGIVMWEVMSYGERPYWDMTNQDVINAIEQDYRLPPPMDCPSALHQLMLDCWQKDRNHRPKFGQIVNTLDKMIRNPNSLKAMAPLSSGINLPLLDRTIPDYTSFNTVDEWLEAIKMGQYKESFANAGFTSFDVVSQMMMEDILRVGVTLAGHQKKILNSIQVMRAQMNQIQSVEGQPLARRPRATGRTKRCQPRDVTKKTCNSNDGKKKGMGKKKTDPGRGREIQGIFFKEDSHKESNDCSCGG
Particulars: EPHB2; 1 uM. The method in brief:
as §1

The target in experiment [3] is T3, kinases of the scanMAX Kinase assay panel (Homo sapiens, UniProt P29597).
T3 construct: purchased DiscoverX Co. (contract measurement) scanMAX Kinase assay panel
T3 sequence (P29597 whole entry): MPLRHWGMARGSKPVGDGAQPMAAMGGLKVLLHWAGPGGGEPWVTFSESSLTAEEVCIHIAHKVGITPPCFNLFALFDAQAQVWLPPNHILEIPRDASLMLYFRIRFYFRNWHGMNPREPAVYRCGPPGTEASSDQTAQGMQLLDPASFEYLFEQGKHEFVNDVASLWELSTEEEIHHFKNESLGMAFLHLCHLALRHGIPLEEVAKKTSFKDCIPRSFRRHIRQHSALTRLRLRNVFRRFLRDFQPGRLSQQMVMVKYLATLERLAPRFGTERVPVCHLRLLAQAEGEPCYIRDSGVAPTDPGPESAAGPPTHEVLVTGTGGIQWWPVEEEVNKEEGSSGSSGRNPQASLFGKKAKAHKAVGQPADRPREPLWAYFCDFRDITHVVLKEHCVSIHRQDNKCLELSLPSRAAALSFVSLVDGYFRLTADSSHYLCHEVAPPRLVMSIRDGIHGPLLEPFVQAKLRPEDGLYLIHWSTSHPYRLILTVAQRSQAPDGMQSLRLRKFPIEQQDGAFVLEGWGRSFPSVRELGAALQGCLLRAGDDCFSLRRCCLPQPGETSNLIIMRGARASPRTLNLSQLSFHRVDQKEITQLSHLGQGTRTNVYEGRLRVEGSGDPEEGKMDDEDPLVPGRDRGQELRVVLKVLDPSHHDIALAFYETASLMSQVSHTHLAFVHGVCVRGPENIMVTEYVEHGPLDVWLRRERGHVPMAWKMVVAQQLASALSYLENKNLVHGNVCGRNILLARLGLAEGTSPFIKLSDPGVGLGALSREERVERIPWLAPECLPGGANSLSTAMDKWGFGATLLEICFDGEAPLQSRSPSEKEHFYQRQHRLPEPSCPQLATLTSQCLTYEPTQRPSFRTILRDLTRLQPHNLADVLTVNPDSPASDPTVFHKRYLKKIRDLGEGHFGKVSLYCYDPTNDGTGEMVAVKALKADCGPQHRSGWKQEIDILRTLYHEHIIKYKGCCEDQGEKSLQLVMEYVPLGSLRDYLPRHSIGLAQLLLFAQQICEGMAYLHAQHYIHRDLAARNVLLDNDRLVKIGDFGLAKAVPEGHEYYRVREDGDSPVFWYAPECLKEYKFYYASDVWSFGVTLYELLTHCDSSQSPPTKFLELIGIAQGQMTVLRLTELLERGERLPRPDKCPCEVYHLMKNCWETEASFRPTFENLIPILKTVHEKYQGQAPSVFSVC
Particulars: 1 uM in DMSO. The method in brief: as §1

Experiment [4] has as its target T4, kinases of the scanMAX Kinase assay panel (Homo sapiens, UniProt Q02750).
T4 construct: purchased DiscoverX Co. (contract measurement) scanMAX Kinase assay panel
To be noted: MEK1; 1 uM. An outline of the steps: as §1

Experiment [5] has as its target T5, kinases of the scanMAX Kinase assay panel (Homo sapiens, UniProt Q96RR4).
T5 construct: purchased DiscoverX Co. (contract measurement) scanMAX Kinase assay panel
Particulars: CAMKK2; 1 uM. An outline of the steps:
as §1

Experiment [6] deals with T6, kinases of the scanMAX Kinase assay panel (Homo sapiens, UniProt Q9HAZ1).
T6 construct: purchased DiscoverX Co. (contract measurement) scanMAX Kinase assay panel
T6 sequence (Q9HAZ1 whole entry): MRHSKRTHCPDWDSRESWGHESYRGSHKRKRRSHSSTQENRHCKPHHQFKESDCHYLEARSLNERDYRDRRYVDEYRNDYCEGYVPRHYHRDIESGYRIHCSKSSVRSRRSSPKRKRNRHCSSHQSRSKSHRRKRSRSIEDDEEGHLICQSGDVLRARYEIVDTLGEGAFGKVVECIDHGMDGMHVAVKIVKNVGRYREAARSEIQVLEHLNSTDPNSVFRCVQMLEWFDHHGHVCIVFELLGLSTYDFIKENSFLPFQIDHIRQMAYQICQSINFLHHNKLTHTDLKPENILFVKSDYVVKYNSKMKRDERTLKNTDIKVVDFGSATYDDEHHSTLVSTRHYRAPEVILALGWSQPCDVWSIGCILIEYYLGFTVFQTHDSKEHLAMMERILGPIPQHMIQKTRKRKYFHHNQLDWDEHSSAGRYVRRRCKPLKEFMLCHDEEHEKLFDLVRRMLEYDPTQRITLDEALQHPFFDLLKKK
To be noted: CLK4; 1 uM. The method in brief: as §1

The target in experiment [7] is T7, kinases of the scanMAX Kinase assay panel (Homo sapiens, UniProt Q9Y616).
T7 construct: purchased DiscoverX Co. (contract measurement) scanMAX Kinase assay panel
T7 sequence (Q9Y616 1-596): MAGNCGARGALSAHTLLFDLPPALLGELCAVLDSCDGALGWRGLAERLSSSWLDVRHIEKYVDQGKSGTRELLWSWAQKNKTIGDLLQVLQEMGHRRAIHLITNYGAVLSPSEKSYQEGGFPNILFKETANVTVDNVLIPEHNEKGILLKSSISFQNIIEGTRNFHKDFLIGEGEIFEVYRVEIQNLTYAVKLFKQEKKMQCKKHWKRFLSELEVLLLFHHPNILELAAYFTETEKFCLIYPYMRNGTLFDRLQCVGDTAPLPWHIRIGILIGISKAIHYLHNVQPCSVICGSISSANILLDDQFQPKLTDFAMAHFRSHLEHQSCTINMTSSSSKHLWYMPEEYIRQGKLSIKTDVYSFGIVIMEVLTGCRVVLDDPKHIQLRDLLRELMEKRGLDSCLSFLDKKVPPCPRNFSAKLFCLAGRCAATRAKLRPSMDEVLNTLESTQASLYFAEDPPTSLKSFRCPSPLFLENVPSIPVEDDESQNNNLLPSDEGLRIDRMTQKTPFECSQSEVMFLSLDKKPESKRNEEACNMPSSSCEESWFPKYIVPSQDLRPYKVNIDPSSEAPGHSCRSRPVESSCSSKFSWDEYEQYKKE
Particulars: IRAK3; 1 uM. An outline of the steps: as §1

The mark [8] stands for this setting: kinase TYK2(JH1domain-catalytic), read-out: % control, TYK2(JH1domain-catalytic).
[9] abbreviates: kinase TYK2(JH2domain-pseudokinase), read-out: % control, TYK2(JH2domain-pseudokinase).

T4 sequence (Q02750 whole entry): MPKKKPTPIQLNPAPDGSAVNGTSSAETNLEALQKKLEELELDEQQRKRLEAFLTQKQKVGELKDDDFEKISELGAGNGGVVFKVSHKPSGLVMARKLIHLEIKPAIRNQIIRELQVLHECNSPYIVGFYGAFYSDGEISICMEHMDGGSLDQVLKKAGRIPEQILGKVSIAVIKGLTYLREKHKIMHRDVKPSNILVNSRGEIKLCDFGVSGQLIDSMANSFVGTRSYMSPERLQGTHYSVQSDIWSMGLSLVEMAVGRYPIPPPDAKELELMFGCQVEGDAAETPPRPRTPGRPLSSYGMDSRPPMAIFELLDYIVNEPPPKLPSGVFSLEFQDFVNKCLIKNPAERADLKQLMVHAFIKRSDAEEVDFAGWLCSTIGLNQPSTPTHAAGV
T5 sequence (Q96RR4 whole entry): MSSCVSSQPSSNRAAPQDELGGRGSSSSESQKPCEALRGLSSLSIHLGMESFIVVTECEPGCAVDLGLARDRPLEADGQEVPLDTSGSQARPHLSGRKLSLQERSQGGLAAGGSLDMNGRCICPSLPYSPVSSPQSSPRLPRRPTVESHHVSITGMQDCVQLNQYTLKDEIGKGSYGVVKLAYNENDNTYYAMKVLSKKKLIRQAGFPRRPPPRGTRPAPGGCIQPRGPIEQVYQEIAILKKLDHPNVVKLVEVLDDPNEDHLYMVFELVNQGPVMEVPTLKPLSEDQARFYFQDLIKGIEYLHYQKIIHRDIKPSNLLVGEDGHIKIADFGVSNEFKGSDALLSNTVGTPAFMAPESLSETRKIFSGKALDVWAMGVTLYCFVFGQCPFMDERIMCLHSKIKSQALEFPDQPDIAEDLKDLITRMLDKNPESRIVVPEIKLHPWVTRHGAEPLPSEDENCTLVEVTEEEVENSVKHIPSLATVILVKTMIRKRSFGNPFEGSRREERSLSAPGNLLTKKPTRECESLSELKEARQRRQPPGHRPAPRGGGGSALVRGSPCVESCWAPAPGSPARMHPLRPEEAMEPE

With `CC1(Nc2nc(Nc3cnn([C@H]4CCN(C5COC5)C[C@@H]4F)c3Cl)nc3[nH]cc(C#N)c23)CC1` [Example 52, 2-((5-chloro-1-((3S,4S)-3-fluoro-1-(oxetane-3-yl)piperidine-4-yl)-1H-pyrazole-4-yl)amino)((1-methylcyclopropyl)amino)-7H-pyrrolo[2,3-d]pyrimidine-5-carbonitrile], the remaining binding at 1 µM in experiment [1] (JAK1(JH1domain-catalytic)) was found to be 44%; in experiment [1] (JAK1(JH2domain-pseudokinase)), 0%; in experiment [2], 70%; in experiment [3] (setting [8]), 0%; in experiment [3] (setting [9]), 7.2%; in experiment [4] it was 0.1%. For the same compound, the remaining binding at 1 µM in experiment [5] is 5.7%; in experiment [6] it was 1.4%; in experiment [7], 3.9%.

`CCNc1nc(Nc2ccc(C(=O)N3CCC(N4CCOCC4)CC3)cc2OC)nc2[nH]cc(C(F)(F)F)c12` [Example 104, (4-((4-(ethylamino)-5-(trifluoromethyl)-7H-pyrrolo[2,3-d]pyrimidine-2-yl)amino)-3-methoxyphenyl)(4-morpholinopiperidine-1-yl)methanone]: the remaining binding at 1 µM worked out at 100% in experiment [1] (JAK1(JH1domain-catalytic)); 55% in experiment [1] (JAK1(JH2domain-pseudokinase)); 91% in experiment [2]; 100% in experiment [3] (setting [8]); 100% in experiment [3] (setting [9]); 86% in experiment [4]. In addition, the figures for the remaining binding at 1 µM in experiment [5], in experiment [6] and in experiment [7] were 20%, 4.1% and 26%, respectively.

As for `CNc1nc(Nc2ccc(C(=O)N3CCOCC3)cc2OC)nc2[nH]cc(C#N)c12` [Example 1, 2-((2-methoxy-4-(morpholine-4-carbonyl)phenyl)amino)-4-(methylamino)-7H-pyrrolo[2,3-d]pyrimidine-5-carbonitrile], the remaining binding at 1 µM in experiment [1] (JAK1(JH1domain-catalytic)) was found to be 92%; in experiment [1] (JAK1(JH2domain-pseudokinase)) it was 14%; in experiment [2], 99%; in experiment [3] (setting [8]), 80%; in experiment [3] (setting [9]), 66%; in experiment [4], 89%. Besides, the remaining binding at 1 µM in experiment [5] was 65%; in experiment [6] it was 3.4%; in experiment [7], 90%.
